Data published in patent US10745416B2, “Macrocyclic compounds for treating disease” (Turning Point Therapeutics, Inc., priority 2017, dated 2020).

Key:
Test in all cases: Cell proliferation assay (CellTiter-Glo, 72 hours)
BaF3 KIF5B-RET = biological target: T1, BaF3 KIF5B-RET (Homo sapiens, UniProt P07949); format: cell-based; conditions: anti-cell proliferation, read-out: BaF3 KIF5B-RET IC50
T1 construct: fused on or other part: P33176 (Kinesin-1 heavy chain)
From the text: (§1) The KIF5B-RET gene was synthesized at GenScript and cloned into pCDH-CMV-MCS-EF1-Puro plasmid (System Biosciences, Inc). KIF5B-RET point mutation V804M was generated at GenScript by PCR and confirmed by sequencing. Ba/F3-KIF5B-RET wild type and mutant were generated by transducing Ba/F3 cells with lentivirus containing KIF5B-RET wide type or mutant. Stable cell lines were selected by puromycin treatment, followed by IL-3 withdrawal. Briefly, 5×10^6 Ba/F3 cells were transduced with lentivirus supernatant in the presence of 8 μg/mL protamine sulfate. The transduced cells were subsequently selected with 1 µg/mL puromycin in the presence of IL3-containing medium RPMI1640, plus 10% FBS. After 10-12 days of selection, the surviving cells were further selected for IL3 independent growth.
(§2) Two thousand cells per well were seeded in 384 well white plate for 24 hrs, and then treated with compounds for 72 hours (37° C., 5% CO2). Cell proliferation was measured using CellTiter-Glo luciferase-based ATP detection assay (Promega) following the manufactures's protocol. IC50 determinations were performed using GraphPad Prism software (GraphPad, Inc., San Diego, Calif.).

BaF3 KIF5B-RET_G810R = biological target: T2, BaF3 KIF5B-RET_G810R (Homo sapiens, UniProt P07949, G810R, cells depend on it); format: cell-based; conditions: anti-cell proliferation, read-out: BaF3 KIF5B-RET_G810R IC50
T2 construct: fused on or other part: P33176 (Kinesin-1 heavy chain)
From the text: [The source words this procedure for another variant and reports this variant under the same test.] as §1, §2

BaF3 KIF5B-RET_V804M = biological target: T3, BaF3 KIF5B-RET_V804M (Homo sapiens, UniProt P07949, V804M, cells depend on it); format: cell-based; conditions: anti-cell proliferation, read-out: BaF3 KIF5B-RET_V804M IC50
T3 construct: fused on or other part: P33176 (Kinesin-1 heavy chain)
From the text: as §1, §2

KM12 cell (TPM3-TRKA) = format: cell-based, human
Description: (§3) Human medulla thyroid carcinoma cell line TT (containing RET […] mutation) and acute myelogenous cell line KG-1 were purchased from ATCC. Human colon cancer cell line KMI2 (containing TPM3-TRKA) was obtained from NCI.
as §2

KG-1 = format: cell-based, human
Description: as §3, §2

BaF3 EML4-ALK = biological target: T4, BaF3 EML4-ALK (Homo sapiens, UniProt Q9UM73); format: cell-based; conditions: anti-cell proliferation
T4 construct: The EML4-ALK gene (variant 1) was synthesized at GenScript and cloned into pCDH-CMV-MCS-EF1-Puro plasmid (System Biosciences, Inc); fused on or other part: Q9HC35 (Echinoderm microtubule-associated protein-like 4)
Description: The EML4-ALK gene (variant 1) was synthesized at GenScript and cloned into pCDH-CMV-MCS-EF1-Puro plasmid (System Biosciences, Inc). Ba/F3-EML4-ALK wild type were generated by transducing Ba/F3 cells with lentivirus containing EML4-ALK wide type. Stable cell lines were selected by puromycin treatment, followed by IL-3 withdrawal. Briefly, 5×10^6 Ba/F3 cells were transduced with lentivirus supernatant in the presence of 8 μg/mL protamine sulfate. The transduced cells were subsequently selected with 1 μg/mL puromycin in the presence of IL3-containing medium RPMI1640, plus 10% FBS. After 10-12 days of selection, the surviving cells were further selected for IL3 independent growth.
as §2

[1] = Homo sapiens, KM12, anti-cell proliferation
[2] = Homo sapiens, KG-1, anti-cell proliferation

T2 sequence (P07949 whole entry G810R, the tested form may be a part): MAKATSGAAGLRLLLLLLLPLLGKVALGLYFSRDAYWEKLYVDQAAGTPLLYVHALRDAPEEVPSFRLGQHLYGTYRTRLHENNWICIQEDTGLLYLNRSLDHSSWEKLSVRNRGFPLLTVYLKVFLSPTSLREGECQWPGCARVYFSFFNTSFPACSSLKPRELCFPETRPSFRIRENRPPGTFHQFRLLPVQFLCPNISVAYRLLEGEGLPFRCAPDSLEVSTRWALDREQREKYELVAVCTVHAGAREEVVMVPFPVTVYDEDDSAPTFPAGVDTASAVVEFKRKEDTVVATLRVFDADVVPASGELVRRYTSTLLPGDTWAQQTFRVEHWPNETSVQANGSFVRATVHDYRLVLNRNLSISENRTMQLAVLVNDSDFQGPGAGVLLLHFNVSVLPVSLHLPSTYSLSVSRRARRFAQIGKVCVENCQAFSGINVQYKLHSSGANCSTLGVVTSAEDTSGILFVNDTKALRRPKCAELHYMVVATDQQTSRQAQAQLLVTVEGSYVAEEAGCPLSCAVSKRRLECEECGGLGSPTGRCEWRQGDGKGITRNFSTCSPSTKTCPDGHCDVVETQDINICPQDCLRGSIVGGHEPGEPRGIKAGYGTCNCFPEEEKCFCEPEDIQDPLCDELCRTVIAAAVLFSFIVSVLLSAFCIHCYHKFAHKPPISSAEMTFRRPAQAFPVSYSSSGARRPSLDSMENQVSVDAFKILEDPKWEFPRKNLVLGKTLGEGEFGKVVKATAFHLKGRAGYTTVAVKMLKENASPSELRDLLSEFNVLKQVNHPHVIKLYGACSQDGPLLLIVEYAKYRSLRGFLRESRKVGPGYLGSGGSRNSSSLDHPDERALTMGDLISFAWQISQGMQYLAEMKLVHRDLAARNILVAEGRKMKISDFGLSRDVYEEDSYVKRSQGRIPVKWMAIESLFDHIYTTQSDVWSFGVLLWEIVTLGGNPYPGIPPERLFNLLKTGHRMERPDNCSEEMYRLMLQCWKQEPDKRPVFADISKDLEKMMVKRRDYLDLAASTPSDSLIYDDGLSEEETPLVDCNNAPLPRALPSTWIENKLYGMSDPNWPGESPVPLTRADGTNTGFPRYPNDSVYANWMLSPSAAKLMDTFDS
T3 sequence (P07949 whole entry V804M, the tested form may be a part): as the sequence (P07949 whole entry G810R, the tested form may be a part) above, with V804M, R810G counted along it
T1 sequence (P07949 whole entry, change not shown, the tested form may be a part): as the sequence (P07949 whole entry G810R, the tested form may be a part) above, with R810G counted along it
T4 sequence (Q9UM73 whole entry, change not shown, the tested form may be a part): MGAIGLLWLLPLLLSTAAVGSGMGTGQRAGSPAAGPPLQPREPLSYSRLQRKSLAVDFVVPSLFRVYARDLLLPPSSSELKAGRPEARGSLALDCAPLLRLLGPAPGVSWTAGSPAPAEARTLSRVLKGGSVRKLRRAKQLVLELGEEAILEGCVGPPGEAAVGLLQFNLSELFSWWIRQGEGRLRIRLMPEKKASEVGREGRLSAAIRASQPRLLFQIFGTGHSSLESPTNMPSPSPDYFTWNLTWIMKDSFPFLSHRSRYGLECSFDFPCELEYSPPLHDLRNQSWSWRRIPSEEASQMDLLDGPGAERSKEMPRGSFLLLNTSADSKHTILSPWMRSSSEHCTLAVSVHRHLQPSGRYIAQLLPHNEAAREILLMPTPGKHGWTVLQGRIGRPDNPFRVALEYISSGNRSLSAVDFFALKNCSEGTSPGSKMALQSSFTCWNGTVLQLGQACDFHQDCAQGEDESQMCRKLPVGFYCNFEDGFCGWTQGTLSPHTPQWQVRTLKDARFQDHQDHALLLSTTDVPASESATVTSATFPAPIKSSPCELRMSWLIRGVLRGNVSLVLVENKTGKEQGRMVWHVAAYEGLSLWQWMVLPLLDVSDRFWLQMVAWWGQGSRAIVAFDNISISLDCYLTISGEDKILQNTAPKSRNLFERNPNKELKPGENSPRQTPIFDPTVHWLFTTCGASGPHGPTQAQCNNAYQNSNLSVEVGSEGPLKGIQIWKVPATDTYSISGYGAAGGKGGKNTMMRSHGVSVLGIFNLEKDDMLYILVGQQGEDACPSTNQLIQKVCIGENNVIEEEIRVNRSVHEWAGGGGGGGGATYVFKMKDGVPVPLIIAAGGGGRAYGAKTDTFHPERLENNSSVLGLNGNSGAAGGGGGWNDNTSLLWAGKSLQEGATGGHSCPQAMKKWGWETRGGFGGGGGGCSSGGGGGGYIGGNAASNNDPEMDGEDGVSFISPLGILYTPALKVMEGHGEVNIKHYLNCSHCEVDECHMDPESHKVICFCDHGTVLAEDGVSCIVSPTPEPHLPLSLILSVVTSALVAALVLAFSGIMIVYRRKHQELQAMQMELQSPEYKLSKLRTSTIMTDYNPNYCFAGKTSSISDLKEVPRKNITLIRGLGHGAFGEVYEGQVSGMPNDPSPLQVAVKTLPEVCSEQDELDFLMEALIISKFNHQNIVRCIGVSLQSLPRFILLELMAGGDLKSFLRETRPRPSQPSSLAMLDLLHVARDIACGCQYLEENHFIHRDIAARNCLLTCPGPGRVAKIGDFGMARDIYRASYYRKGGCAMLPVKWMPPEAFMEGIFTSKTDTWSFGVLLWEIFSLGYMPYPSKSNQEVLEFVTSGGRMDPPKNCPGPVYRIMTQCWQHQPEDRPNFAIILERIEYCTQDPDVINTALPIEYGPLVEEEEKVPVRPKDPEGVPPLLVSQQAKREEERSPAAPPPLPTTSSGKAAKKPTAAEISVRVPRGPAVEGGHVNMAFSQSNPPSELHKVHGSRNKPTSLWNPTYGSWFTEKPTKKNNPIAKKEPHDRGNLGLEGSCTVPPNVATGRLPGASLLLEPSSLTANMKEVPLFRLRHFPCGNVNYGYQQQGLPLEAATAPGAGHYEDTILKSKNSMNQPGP

Row | GI50 (BaF3 KIF5B-RET) [µM] | GI50 (BaF3 KIF5B-RET_G810R) [µM] | GI50 (BaF3 KIF5B-RET_V804M) [µM] | GI50 (BaF3 EML4-ALK) [µM] | Compound | IC50 (KM12 cell (TPM3-TRKA); [1]) [µM] | IC50 (KG-1; [2]) [µM] | IC50 (KM12 cell (TPM3-TRKA); anti-cell proliferation) [µM] | IC50 (KG-1; anti-cell proliferation) [µM]
1 | 0.101 | 1.01 | 4.62 | 2.71 | C[C@H]1CNC(=O)c2cnn3cc4c(nc23)N(Cc2cc(F)cnc2O1)[C@@H]1CCCC[C@@H]1O4 [Compound 12, (4aR,12S,21aS)-8-fluoro-12-methyl-1,2,3,4,4a,13,14,21a-octahydro-6H-18, 20-(metheno)pyrazolo[4′,3′:6,7]pyrido [3′,2′:12,13][1,4,8, 10]oxatriazacyclotridecino[9,10-c][1,4]benzoxazin-15(12H)-one] | 0.0138 | 0.16 | – | –
2 | 0.0018 | 0.0736 | 1.22 | 0.469 | O=C1N[C@@H]2CCC[C@@H]2Oc2ncc(F)cc2CN2c3nc4c1cnn4cc3O[C@H]1CCC[C@H]12 [Compound 24, (3aS,11aR,14aS,21aR)-18-fluoro-2,3,3a,11,11a,12,13,14,14a,21a-decahydro-1H,10H,20H-7,5-(metheno)cyclopenta[b]cyclopenta[5,6][1,4] oxazino[3,4-i]pyrazolo[4,3-f]pyrido[3,2-l][1,4,8,10]oxatriazacyclotridecin-10-one] | 0.0028 | 0.0087 | – | –
3 | 0.162 | 1.86 | 0.337 | 2 | C[C@H]1CNC(=O)c2cnn3cc4c(nc23)N(Cc2cc(F)cnc2O1)[C@@H]1COC[C@@H]1O4 [Compound 30, (3aR,11S,20aR)-7-fluoro-11-methyl-1,3,3a,12,13,20a-hexahydro-5H-17,19-(metheno)furo[3′,4′:5,6][1,4]oxazino[3,4-i]pyrazolo[4,3-f]pyrido[3,2-l][1,4,8,10]oxatriazacyclotridecin-14(11H)-one] | 0.0135 | 0.853 | – | –
4 | 0.0102 | 0.0573 | 3 | 0.152 | O=C1NC[C@@H](F)COc2ncc(F)cc2CN2c3nc4c1cnn4cc3O[C@H]1CCC[C@H]12 [Compound 39, 3aR,12R,21aS)-7,12-difluoro-2,3,3a,11,12,13,21a-octahydro-1H,5H, 15H-18,20-(metheno)cyclopenta[5,6][1,4] oxazino[4,3-e]pyrazolo[3,4-h]pyrido[2,3-b][1,5,7,11]oxatriazacyclotetradecin-15-one] | 0.0074 | 0.0592 | – | –
5 | 0.0018 | 0.0107 | 2.73 | 0.616 | C[C@H]1CNC(=O)c2cnn3cc4c(nc23)N(Cc2cc(F)cnc2OC1)[C@@H]1CCC[C@@H]1O4 [Compound 17, (3aR,12S,21aS)-7-fluoro-12-methyl-2,3,3a,11,12,13,14,21a-octahydro-1H,5H, 15H-18,20-(metheno)cyclopenta[5,6] [1,4]oxazino[4,3-e]pyrazolo[3,4-h]pyrido [2,3-b][1,5,7,11]oxatriazacyclotetradecin-15-one] | 0.004 | 0.005 | – | –
6 | 0.16 | 0.323 | 5 | 1.41 | O=C1NC2(CCCC2)COc2ncc(F)cc2CN2c3nc4c1cnn4cc3O[C@H]1CCC[C@H]12 [Compound 26, (3a′R,20a′S)-7′-fluoro-1′H,2′H, 3′H,3a′H,5′H,11′H,13′H,14′H,20a′H-spiro[cyclopentane-1,12′-[10,20]dioxa[4,9,13,16,17,18][hexaaza [17,19](metheno)cyclopenta[5,6][1,4]oxazino[3,4-i]pyrazolo[4,3-f]pyrido [3,2-l][1,4,8,10]oxatriazacyclotridecin]-14′-one] | 0.21 | 0.737 | – | –
7 | 0.397 | 1.64 | 5 | > 10 | O=C1NC[C@@H](CO)Oc2ncc(F)cc2CN2c3nc4c1cnn4cc3O[C@H]1CCC[C@H]12 [Compound 49, (3aR,11S,20aS)-7-fluoro-11-(hydroxymethyl)-2,3,3a,12,13,20a-hexahydro-1H,5H-17,19-(metheno)cyclopenta[5,6][1,4]oxazino[3,4-i]pyrazolo[4,3-f]pyrido[3,2-l][1,4,8,10]oxatriazacyclotridecin-14(11H)-one] | 1.46 | 5.24 | – | –
8 | 0.0989 | 0.422 | 3 | 1.68 | O=C1NCC2(CCC2)COc2ncc(F)cc2CN2c3nc4c1cnn4cc3O[C@H]1CCC[C@H]12 [Compound 23, (3a′R,21a′S)-7′-fluoro-1′H,2′H,3′H,3a′H, 5′H,11′H,13′H,14′H,15′H,21a′H-spiro[cyclobutane-1,12′-[10,21]dioxa[4,9,14,17,18,19][hexaaza [18,20](metheno)cyclopenta[5,6][1,4]oxazino[4,3-e]pyrazolo[3,4-h]pyrido [2,3-b][1,5,7,11]oxatriazacyclotetradecin]-15′-one] | 0.0529 | 0.228 | – | –
9 | 0.0052 | 0.078 | 3.07 | 0.895 | O=C1NCCCOc2ncc(F)cc2CN2c3nc4c1cnn4cc3O[C@H]1CCC[C@H]12 [Compound 19, (3aR,21aS)-7-fluoro-2,3,3a,11,12,13,14,21a-octahydro-1H,5H,15H-18,20-(metheno)cyclopenta[5,6][1,4]oxazino[4,3-e]pyrazolo[3,4-h]pyrido[2,3-b][1,5,7,11]oxatriazacyclotetradecin-15-one] | 0.0078 | 0.0731 | – | –
10 | 0.0015 | 0.072 | 2 | 0.803 | C[C@H]1CCOc2ncc(F)cc2CN2c3nc4c(cnn4cc3O[C@H]3CCC[C@H]32)C(=O)N1 [Compound 28, (3aR,13S,21aS)-7-fluoro-13-methyl-2,3,3a,11,12,13,14,21a-octahydro-1H,5H,15H-18,20-(metheno)cyclopenta[5,6][1,4]oxazino[4,3-e]pyrazolo[3,4-h]pyrido[2,3-b][1,5,7,11]oxatriazacyclotetradecin-15-one] | 0.0118 | 0.0228 | – | –
11 | 0.0002 | 0.0909 | 1.07 | 0.456 | O=C1N[C@H](C(F)(F)F)COc2ncc(F)cc2CN2c3nc4c1cnn4cc3O[C@H]1CCC[C@H]12 [Compound 48, (3aR,12S,20aS)-7-fluoro-12-(trifluoromethyl)-2,3,3a,12,13,20a-hexahydro-1H,5H-17,19-(metheno)cyclopenta[5,6][1,4]oxazino[3,4-i]pyrazolo[4,3-f]pyrido[3,2-l][1,4,8,10]oxatriazacyclotridecin-14(11H)-one] | 0.0059 | 0.117 | – | –
12 | 0.0002 | 0.0992 | 1.84 | 0.675 | C[C@@H]1COc2c(F)cc(F)cc2CN2c3nc4c(cnn4cc3O[C@H]3CCC[C@H]32)C(=O)N1 [Compound 7, (3aR,12R,20aS)-7,9-difluoro-12-methyl-2,3,3a,12,13,20a-hexahydro-1H,5H-17-19-(metheno)cyclopenta[5,6][1,4] oxazino[3,4-i]pyrazolo[4,3-f][1,4,8,10]benzoxatriazacyclotridecin-14(11H)-one] | 0.037 | 0.344 | – | –
13 | < 0.0002 | 0.0029 | 0.0715 | 0.0555 | (3aR,11s,13S,21aS)-7-fluoro-2,3,3a,12, 13,14,15,21a-octahydro-1H,5H,11H- 11,13-methano-18,20- (metheno)cyclopenta[5,6][1,4] oxazino[4,3-e]pyrazolo[3,4-h]pyrido[2,3- b][1,5,7,11]oxatriazacyclotetradecine [Compound 46] | – | – | 0.0028 | 0.0059
